Experimental findings from patent publication US8778966B2, “Quinolinone derivatives as PARP and tank inhibitors” (Janssen Pharmaceutica, NV, priority 2007, dated 2014) are described below.

The target in assay [1] is T1, TANK-2 enzyme (Homo sapiens, UniProt Q9H2K2).
T1 construct: made in house
T1 sequence (Q9H2K2 1-1166): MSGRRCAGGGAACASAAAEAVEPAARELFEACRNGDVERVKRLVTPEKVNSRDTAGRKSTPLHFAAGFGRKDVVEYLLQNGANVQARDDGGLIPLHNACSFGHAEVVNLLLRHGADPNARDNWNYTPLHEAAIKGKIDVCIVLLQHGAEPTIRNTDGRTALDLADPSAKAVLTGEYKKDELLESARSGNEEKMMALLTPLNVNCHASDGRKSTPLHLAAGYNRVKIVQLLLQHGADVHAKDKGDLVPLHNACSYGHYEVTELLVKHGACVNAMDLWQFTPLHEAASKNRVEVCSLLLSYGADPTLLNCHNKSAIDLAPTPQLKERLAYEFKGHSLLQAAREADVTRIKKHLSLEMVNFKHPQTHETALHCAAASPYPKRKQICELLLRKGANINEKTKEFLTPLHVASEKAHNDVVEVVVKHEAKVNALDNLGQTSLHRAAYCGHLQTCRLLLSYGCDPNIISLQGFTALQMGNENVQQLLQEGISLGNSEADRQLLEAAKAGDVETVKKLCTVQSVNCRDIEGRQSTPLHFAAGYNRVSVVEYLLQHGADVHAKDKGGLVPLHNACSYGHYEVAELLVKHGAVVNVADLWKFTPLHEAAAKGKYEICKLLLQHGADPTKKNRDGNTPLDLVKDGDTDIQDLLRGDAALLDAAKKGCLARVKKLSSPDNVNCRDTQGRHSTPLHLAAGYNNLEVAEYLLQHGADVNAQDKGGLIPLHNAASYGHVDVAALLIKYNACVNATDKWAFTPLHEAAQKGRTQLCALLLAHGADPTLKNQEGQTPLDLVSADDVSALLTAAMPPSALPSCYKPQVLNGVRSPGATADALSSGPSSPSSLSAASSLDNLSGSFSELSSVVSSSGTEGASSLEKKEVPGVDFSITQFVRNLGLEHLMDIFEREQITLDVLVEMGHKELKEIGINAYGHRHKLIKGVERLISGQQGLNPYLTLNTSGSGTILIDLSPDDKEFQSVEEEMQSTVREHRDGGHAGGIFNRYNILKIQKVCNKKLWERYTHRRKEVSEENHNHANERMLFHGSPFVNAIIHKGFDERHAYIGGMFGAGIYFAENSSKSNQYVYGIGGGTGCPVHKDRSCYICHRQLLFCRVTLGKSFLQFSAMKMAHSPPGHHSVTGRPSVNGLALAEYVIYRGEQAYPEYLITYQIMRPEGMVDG
The assay is described as follows: In vitro Scintillation Proximity Assay (SPA) for TANK-2 inhibitory activity. In kind it is biochemical. The following applies: read-out: in vitro SPA assay TANK-2 pIC50 (converted). The essentials:
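Results are pIC50 values, with IC50 interpolated linearly around 50% of blank-subtracted control cpm. They come from a scintillation proximity read of TANK-2 (8 μg/ml) self-modification with [3H]-NAD+/NAD, incubated 120 min at room temperature in pH 7.4 Tris buffer containing MgCl2 and DTT. Compounds were first screened at 10^−5 M.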
(In general: In a scintillation proximity assay essentially only radioactivity close to the scintillant gives light.)

Assay [2] relates to PC3 cells. The assay is described as follows: EB1 Comet (microtubule disruption) assay. In kind it is cell-based, human. The following applies: Homo sapiens, PC-3, 1 h, 1 hour treatment, read-out: EB1 pLAC (converted). The essentials:
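Readout is loss of Eb1 plus-end foci, scored by immunofluorescence microscopy, in PC3 cells after 1 h compound treatment at 37 °C with 0.6% final DMSO. LAC is defined as the lowest concentration leaving at least 50% of cells without Eb1 foci.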

`CCc1cc2ccc(C(C)(C#N)Cc3c(Cl)cccc3Cl)cc2[nH]c1=O` (centres unmarked) [Compound 135]: the IC50 in assay [1] was 50.1 nM. The minimal effective concentration in assay [2] was 1 µM.
